Data reported in the kinase profiling compilation of Christmann-Franck et al. (2016).

What was measured:
Assay in all cases: KINOMEscan competition binding
Details in all cases: compound 0.1 µM
PRKCH (human) = PRKCH (human) (UniProt P24723)
DCLK3 (human) = DCLK3 (human) (UniProt Q9C098)
PRKG2 (human) = PRKG2 (human) (UniProt Q13237)
OXSR1 (human) = OXSR1 (human) (UniProt O95747)
MST1R (human) = MST1R (human) (UniProt Q04912)
AURKA (human) = AURKA (human) (UniProt O14965)
MAP2K5 (human) = MAP2K5 (human) (UniProt Q13163)
MINK1 (human) = MINK1 (human) (UniProt Q8N4C8)
CSNK1E (human) = CSNK1E (human) (UniProt P49674)
Sequence of CSNK1E (human) (P49674 whole entry, looked up): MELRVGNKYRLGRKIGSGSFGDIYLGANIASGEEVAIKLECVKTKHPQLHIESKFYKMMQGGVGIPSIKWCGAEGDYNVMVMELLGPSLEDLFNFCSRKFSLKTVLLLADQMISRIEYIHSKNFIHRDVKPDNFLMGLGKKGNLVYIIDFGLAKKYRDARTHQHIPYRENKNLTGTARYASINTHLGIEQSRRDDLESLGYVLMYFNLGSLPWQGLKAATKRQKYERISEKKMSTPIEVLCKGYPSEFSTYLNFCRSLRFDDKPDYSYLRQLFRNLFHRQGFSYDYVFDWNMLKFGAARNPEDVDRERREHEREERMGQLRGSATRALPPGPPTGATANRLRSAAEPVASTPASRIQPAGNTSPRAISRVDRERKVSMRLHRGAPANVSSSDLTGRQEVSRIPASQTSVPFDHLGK

[1] = system: KIT (human), P10721 [A829P]
[2] = system: EGFR (human), P00533 [746-750 del]
MAPK14 (human) = MAPK14 (human) (UniProt Q16539)
DYRK1A (human) = DYRK1A (human) (UniProt Q13627)
MAPK7 (human) = MAPK7 (human) (UniProt Q13164)
FGFR3 (human) = FGFR3 (human) (UniProt P22607)
PRPF4B (human) = PRPF4B (human) (UniProt Q13523)
CAMK2G (human) = CAMK2G (human) (UniProt Q13555)
ANKK1 (human) = ANKK1 (human) (UniProt Q8NFD2)
MYO3B (human) = MYO3B (human) (UniProt Q8WXR4)
CDK4 CCND3 (human) = CDK4 CCND3 (human) (UniProt P11802+P30281)
PLK2 (human) = PLK2 (human) (UniProt Q9NYY3)
EPHB3 (human) = EPHB3 (human) (UniProt P54753)
TNNI3K (human) = TNNI3K (human) (UniProt Q59H18)
EPHB4 (human) = EPHB4 (human) (UniProt P54760)
TNIK (human) = TNIK (human) (UniProt Q9UKE5)
IKBKE (human) = IKBKE (human) (UniProt Q14164)
[3] = system: ABL1 (human), P00519 [H396P]
[4] = system: RET (human), P07949 [V804L]
WNK3 (human) = WNK3 (human) (UniProt Q9BYP7)
LRRK2 (human) = LRRK2 (human) (UniProt Q5S007)
TNK2 (human) = TNK2 (human) (UniProt Q07912)
Sequence of TNK2 (human) (Q07912 whole entry, looked up): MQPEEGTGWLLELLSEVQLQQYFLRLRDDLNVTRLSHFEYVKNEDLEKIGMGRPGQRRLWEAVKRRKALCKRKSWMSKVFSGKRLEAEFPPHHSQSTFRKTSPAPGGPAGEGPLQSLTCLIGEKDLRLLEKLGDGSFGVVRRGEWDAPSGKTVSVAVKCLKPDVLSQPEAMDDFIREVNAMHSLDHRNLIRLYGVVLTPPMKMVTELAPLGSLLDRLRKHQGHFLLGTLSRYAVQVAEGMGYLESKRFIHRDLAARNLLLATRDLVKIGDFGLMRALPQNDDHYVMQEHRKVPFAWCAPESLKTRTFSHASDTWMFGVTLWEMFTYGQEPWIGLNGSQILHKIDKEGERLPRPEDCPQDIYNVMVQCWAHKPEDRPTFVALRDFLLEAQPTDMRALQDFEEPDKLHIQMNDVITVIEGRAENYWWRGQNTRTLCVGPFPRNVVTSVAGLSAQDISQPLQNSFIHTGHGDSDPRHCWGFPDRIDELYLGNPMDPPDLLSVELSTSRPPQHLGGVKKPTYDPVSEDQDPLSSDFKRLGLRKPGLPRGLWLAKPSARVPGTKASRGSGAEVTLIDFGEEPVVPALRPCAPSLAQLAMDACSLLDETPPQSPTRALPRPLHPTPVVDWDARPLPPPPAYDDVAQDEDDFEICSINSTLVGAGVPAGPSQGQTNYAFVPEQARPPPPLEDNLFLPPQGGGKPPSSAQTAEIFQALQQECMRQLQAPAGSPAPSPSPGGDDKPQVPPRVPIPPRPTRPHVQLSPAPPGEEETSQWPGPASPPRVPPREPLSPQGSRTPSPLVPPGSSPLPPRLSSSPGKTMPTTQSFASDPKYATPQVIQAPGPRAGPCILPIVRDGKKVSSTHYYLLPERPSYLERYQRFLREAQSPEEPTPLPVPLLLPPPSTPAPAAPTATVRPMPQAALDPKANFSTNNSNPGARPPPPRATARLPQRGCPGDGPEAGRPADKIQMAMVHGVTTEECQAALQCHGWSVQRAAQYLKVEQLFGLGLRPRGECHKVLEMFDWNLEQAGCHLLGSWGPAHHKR

[5] = system: EGFR (human), P00533 [G719S]
HIPK4 (human) = HIPK4 (human) (UniProt Q8NE63)
[6] = system: PIK3CA (human), P42336 [H1047Y]
MAP3K15 (human) = MAP3K15 (human) (UniProt Q6ZN16)
MAPK12 (human) = MAPK12 (human) (UniProt P53778)
RPS6KA4 KD1 (human) = RPS6KA4 KD1 (human) (UniProt O75676)
Sequence of RPS6KA4 KD1 (human) (O75676 whole entry, looked up): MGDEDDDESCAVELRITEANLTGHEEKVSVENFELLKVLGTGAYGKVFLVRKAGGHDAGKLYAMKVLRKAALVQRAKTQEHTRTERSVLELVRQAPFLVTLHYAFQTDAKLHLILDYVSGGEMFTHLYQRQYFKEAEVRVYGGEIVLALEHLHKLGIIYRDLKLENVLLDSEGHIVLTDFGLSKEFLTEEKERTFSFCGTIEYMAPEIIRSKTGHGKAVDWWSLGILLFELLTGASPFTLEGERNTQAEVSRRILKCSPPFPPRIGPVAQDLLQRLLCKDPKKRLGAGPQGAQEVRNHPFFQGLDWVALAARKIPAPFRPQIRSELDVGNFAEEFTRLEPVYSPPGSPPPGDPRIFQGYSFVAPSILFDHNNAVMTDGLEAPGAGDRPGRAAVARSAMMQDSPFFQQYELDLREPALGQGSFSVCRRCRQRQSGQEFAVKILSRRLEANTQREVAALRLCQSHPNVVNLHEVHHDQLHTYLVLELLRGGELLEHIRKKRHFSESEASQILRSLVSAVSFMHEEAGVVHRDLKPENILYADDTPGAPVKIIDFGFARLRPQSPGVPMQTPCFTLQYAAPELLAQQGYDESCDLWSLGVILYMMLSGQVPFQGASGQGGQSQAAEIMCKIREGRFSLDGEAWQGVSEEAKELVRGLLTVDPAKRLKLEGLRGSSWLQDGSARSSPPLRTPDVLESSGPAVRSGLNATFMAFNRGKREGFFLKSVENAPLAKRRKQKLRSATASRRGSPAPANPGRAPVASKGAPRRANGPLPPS

[7] = system: ABL1 (human), P00519 [F317L]
BMPR1A (human) = BMPR1A (human) (UniProt P36894)
PRKD1 (human) = PRKD1 (human) (UniProt Q15139)
Sequence of PRKD1 (human) (Q15139 whole entry, looked up): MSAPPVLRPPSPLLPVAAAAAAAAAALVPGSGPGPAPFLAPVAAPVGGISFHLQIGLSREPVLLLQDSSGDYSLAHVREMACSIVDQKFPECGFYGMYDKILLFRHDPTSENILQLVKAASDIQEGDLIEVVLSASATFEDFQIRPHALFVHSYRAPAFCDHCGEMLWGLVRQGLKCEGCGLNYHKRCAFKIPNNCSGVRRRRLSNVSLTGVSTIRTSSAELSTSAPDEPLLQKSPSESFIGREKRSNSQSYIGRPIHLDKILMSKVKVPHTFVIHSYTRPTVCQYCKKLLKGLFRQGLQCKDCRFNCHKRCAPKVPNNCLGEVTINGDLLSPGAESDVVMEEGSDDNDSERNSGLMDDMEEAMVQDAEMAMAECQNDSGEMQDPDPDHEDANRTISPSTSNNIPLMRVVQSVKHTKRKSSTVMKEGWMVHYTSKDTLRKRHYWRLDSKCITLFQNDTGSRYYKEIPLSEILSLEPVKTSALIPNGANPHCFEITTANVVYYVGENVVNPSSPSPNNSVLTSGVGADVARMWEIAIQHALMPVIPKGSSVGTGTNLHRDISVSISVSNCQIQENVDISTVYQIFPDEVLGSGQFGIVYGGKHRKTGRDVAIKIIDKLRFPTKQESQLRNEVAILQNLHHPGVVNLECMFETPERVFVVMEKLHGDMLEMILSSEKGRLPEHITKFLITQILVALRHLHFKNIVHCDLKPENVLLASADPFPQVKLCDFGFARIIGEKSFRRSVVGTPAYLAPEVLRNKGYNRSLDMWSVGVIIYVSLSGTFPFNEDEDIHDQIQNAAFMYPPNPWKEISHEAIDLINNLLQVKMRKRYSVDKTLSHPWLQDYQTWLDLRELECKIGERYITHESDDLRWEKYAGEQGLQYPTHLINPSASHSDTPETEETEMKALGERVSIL

Sequence of DCLK3 (human) (Q9C098 whole entry, looked up): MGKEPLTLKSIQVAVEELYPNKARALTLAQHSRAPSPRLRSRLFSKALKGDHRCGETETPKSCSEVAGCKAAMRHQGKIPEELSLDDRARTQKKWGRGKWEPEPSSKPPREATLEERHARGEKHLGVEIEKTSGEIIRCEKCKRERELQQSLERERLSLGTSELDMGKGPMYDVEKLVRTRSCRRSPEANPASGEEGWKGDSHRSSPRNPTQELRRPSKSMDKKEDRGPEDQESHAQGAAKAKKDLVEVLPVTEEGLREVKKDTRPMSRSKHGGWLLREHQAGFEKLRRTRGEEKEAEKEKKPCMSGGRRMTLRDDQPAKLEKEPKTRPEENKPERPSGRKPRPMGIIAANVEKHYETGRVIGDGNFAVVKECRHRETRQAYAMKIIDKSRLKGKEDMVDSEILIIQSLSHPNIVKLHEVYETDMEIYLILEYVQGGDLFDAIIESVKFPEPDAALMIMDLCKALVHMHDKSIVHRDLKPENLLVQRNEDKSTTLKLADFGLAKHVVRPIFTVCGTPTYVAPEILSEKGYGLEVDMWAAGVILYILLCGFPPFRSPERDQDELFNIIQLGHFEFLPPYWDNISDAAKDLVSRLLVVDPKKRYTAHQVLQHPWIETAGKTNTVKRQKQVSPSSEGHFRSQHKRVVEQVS
Sequence of OXSR1 (human) (O95747 whole entry, looked up): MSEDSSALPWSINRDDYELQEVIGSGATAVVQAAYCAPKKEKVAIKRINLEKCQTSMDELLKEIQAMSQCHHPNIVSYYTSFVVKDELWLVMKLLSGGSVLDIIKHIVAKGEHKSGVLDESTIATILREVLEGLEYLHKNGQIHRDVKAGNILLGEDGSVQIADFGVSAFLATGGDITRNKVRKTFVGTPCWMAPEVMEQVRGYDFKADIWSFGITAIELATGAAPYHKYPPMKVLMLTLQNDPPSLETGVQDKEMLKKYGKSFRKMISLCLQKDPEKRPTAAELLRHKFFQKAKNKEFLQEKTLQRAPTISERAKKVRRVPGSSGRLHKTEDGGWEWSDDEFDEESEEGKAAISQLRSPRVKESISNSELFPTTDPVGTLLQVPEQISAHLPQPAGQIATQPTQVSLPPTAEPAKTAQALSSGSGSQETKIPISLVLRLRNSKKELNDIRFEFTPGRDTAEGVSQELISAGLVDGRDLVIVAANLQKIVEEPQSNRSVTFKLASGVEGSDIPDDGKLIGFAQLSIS
Sequence of AURKA (human) (O14965 whole entry, looked up): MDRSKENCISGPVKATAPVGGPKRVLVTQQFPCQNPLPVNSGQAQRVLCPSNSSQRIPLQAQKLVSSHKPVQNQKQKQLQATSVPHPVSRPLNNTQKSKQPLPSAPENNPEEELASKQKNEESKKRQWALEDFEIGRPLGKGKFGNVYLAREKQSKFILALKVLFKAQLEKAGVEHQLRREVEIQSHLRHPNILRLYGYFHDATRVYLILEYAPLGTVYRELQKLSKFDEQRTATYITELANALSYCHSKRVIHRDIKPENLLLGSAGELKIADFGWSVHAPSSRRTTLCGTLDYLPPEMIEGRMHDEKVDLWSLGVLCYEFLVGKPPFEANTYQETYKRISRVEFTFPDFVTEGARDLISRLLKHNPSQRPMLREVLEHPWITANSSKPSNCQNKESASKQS

For `CCc1ccc(C(=O)Nc2cc(CN3CCN(C)CC3)cc(C(F)(F)F)c2)cc1C#Cc1cnc2ccnn2c1`, the kinase still bound, per cent of control (PRKCH (human)) was 100%, the kinase still bound, per cent of control (DCLK3 (human)) was 100% and the kinase still bound, per cent of control (PRKG2 (human)) was 100%. The kinase still bound, per cent of control (OXSR1 (human)) was 100%, the kinase still bound, per cent of control (MST1R (human)) was 66% and the kinase still bound, per cent of control (AURKA (human)) was 100%. It also gave a kinase still bound, per cent of control (MAP2K5 (human)) of 100%, a kinase still bound, per cent of control (MINK1 (human)) of 100% and a kinase still bound, per cent of control (CSNK1E (human)) of 85%. The kinase still bound, per cent of control [1] was 69%, the kinase still bound, per cent of control [2] was 100% and the kinase still bound, per cent of control (MAPK14 (human)) was 85%. The kinase still bound, per cent of control (DYRK1A (human)) was 100%, the kinase still bound, per cent of control (MAPK7 (human)) was 100% and the kinase still bound, per cent of control (FGFR3 (human)) was 100%. The kinase still bound, per cent of control (PRPF4B (human)) was 75%, the kinase still bound, per cent of control (CAMK2G (human)) was 79% and the kinase still bound, per cent of control (ANKK1 (human)) was 100%. For the same molecule, the kinase still bound, per cent of control (MYO3B (human)) was 100%, the kinase still bound, per cent of control (CDK4 CCND3 (human)) was 100% and the kinase still bound, per cent of control (PLK2 (human)) was 100%. It also gave a kinase still bound, per cent of control (EPHB3 (human)) of 94%, a kinase still bound, per cent of control (TNNI3K (human)) of 56% and a kinase still bound, per cent of control (EPHB4 (human)) of 100%. It also gave a kinase still bound, per cent of control (TNIK (human)) of 84%, a kinase still bound, per cent of control (IKBKE (human)) of 100% and a kinase still bound, per cent of control [3] of 100%. For the same molecule, the kinase still bound, per cent of control [4] was 86%, the kinase still bound, per cent of control (WNK3 (human)) was 100% and the kinase still bound, per cent of control (LRRK2 (human)) was 86%. For the same molecule, the kinase still bound, per cent of control (TNK2 (human)) was 96%, the kinase still bound, per cent of control [5] was 100% and the kinase still bound, per cent of control (HIPK4 (human)) was 78%. It also gave a kinase still bound, per cent of control [6] of 76%, a kinase still bound, per cent of control (MAP3K15 (human)) of 100% and a kinase still bound, per cent of control (MAPK12 (human)) of 72%. For the same molecule, the kinase still bound, per cent of control (RPS6KA4 KD1 (human)) was 93%, the kinase still bound, per cent of control [7] was 86% and the kinase still bound, per cent of control (BMPR1A (human)) was 100%. For the same molecule, the kinase still bound, per cent of control (PRKD1 (human)) was 100%.
